Results reported in patent publication US20150111864A1, “CRYSTALLINE FORM OF A BETA-LACTAMASE INHIBITOR” (Cubist Pharmaceuticals, Inc., priority 2013, published 2015).

How the values were obtained:
[1] = system: Pae.2863 (AmpC de-repress, clinical); experiment: Standard BLI Potentiation MIC Assay in Combination with Ceftolozane; assay type: cell-based, Pseudomonas aeruginosa; settings: Pseudomonas aeruginosa, read-out: MIC of Ceftolozane, No BLI
Procedure: (§1) The experimental protocol was performed according to Clinical and Laboratory Standards Institute (CLSI) guidelines with modifications as described below (CLSI guidelines can be derived from the CLSI document M07-A9 published in January 2012: “Methods for Dilution Antimicrobial Susceptibility Tests for Bacteria That Grow Aerobically; Approved Standard-Ninth Edition”).
(§2) Frozen glycerol stocks of laboratory engineered, isogenic E. coli strains, which contain cloned β-lactamase expressing plasmids were used to streak for isolated colonies on rich, selective LB agar supplemented with 25 μg/mL tetracycline to maintain the plasmid. All strains were incubated at 37° C. for 18-24 hrs.
(§3) On the day of testing, primary cultures were started by scraping off 5-10 colonies from the TSAB plates containing clinical strains or the tetracycline supplemented LB plates containing engineered strains. The clinical strain material was suspended in ˜5 mL of cation adjusted Mueller Hinton Broth (CAMHB) in 14 mL culture tubes. The engineered strain material was suspended in CAMHB (supplemented with 25 μg/mL tetracycline) in 14 mL culture tubes. All strains were incubated at 37° C. with aeration (200 rpm) for ˜2 hrs until the optical density at 600 nm (OD600) was ≧0.1.
(§4) The two compound components of the assay were each diluted in CAMHB and added to the 96-well broth microdilution assay plates. 50 μL of the β-lactam was added to each well of the assay plate in 2-fold dilutions with final concentrations ranging from 128 to 0.13 μg/mL. 25 μL of the BLI compound was added to all wells in the broth microdilution plates at a final concentration of 4 μg/mL. Inoculum cultures were prepared by standardizing the primary cultures to OD600=0.1 and then adding 20 μL of the adjusted primary culture per 1 mL CAMHB for clinical strains or CAMHB (supplemented with tetracycline at 100 μg/mL) for engineered strains, so that the final inoculum density was ˜10^5 colony forming units per milliliter. Diluted inoculum cultures were used to inoculate 25 μL per well in 96-well broth microdilution assay plates. The final volume of each well was 100 μL and contained a β-lactam at different concentrations, a BLIcompound at 4 μg/mL concentration, the bacterial culture at an OD600 of approximately 0.001 and when necessary tetracycline at 25 μg/mL.
(§5) Plates were incubated for 18-20 hours at 37° C. with aeration (200 rpm). Following incubation, growth was confirmed visually placing plates over a viewing apparatus (stand with a mirror underneath) and then OD600 was measured using a SpectraMax 340PC384 plate reader (Molecular Devices, Sunnyvale, Calif.). Growth was defined as turbidity that could be detected with the naked eye or achieving minimum OD600 of 0.1. MIC values were defined as the lowest concentration producing no visible turbidity.

[2] = system: Pae.2885 (AmpC, clinical); experiment: as above; assay type: cell-based, Pseudomonas aeruginosa; settings: Pseudomonas aeruginosa, read-out: MIC of Ceftolozane, No BLI
Procedure: as §1, §2, §3, §4, §5

[3] = system: Pae.2757 (AmpC over-expn, clinical); experiment: as above; assay type: cell-based, Pseudomonas aeruginosa; settings: Pseudomonas aeruginosa, read-out: MIC of Ceftolozane, No BLI
Procedure: as §1, §2, §3, §4, §5

[4] = system: Kpn.2913 (KPC-2, SHV+, clinical); experiment: as above; assay type: cell-based; settings: Klebsiella pneumoniae, read-out: MIC of Ceftolozane, No BLI
Procedure: as §1, §2, §3
as §4, with “plates.” for “plates. The final volume of each well was 100 μL and contained a β-lactam at different concentrations, a BLIcompound at 4 μg/mL concentration, the bacterial culture at an OD600 of approximately 0.001 and when necessary tetracycline at 25 μg/mL.”

[5] = system: Kpn.2918 (KPC-3, SHV+, TEM+, clinical); experiment: as above; assay type: cell-based; settings: Klebsiella pneumoniae, read-out: MIC of Ceftolozane, No BLI
Procedure: as §1, §2, §3
as §4, with “plates.” for “plates. The final volume of each well was 100 μL and contained a β-lactam at different concentrations, a BLIcompound at 4 μg/mL concentration, the bacterial culture at an OD600 of approximately 0.001 and when necessary tetracycline at 25 μg/mL.”

[6] = system: Kpn.571 (TEM-26, clinical); experiment: as above; assay type: cell-based; settings: Klebsiella pneumoniae, read-out: MIC of Ceftolozane, No BLI
Procedure: as §1, §2, §3
as §4, with “plates.” for “plates. The final volume of each well was 100 μL and contained a β-lactam at different concentrations, a BLIcompound at 4 μg/mL concentration, the bacterial culture at an OD600 of approximately 0.001 and when necessary tetracycline at 25 μg/mL.”

[7] = system: Eco.2781 (KPC-2, TEM+, clinical); experiment: as above; assay type: cell-based; settings: Escherichia coli, read-out: MIC of Ceftolozane, No BLI
Procedure: as §1, §2, §3
as §4, with “plates.” for “plates. The final volume of each well was 100 μL and contained a β-lactam at different concentrations, a BLIcompound at 4 μg/mL concentration, the bacterial culture at an OD600 of approximately 0.001 and when necessary tetracycline at 25 μg/mL.”

[8] = system: Kpn.2926 (CTX-M-15, OXA-48, clinical); experiment: as above; assay type: cell-based; settings: Klebsiella pneumoniae, read-out: MIC of Ceftolozane, No BLI
Procedure: as §1, §2, §3
as §4, with “plates.” for “plates. The final volume of each well was 100 μL and contained a β-lactam at different concentrations, a BLIcompound at 4 μg/mL concentration, the bacterial culture at an OD600 of approximately 0.001 and when necessary tetracycline at 25 μg/mL.”

[9] = system: Pae.2808 (KPC-2, clinical); experiment: as above; assay type: cell-based; settings: Pseudomonas aeruginosa, read-out: MIC of Ceftolozane, No BLI
Procedure: as §1, §2, §3
as §4, with “plates.” for “plates. The final volume of each well was 100 μL and contained a β-lactam at different concentrations, a BLIcompound at 4 μg/mL concentration, the bacterial culture at an OD600 of approximately 0.001 and when necessary tetracycline at 25 μg/mL.”

[10] = system: Kpn.2490 (KPC-3, SHV+, TEM+, clinical); experiment: as above; assay type: cell-based; settings: Klebsiella pneumoniae, read-out: MIC of Ceftolozane, No BLI
Procedure: as §1, §2, §3
as §4, with “plates.” for “plates. The final volume of each well was 100 μL and contained a β-lactam at different concentrations, a BLIcompound at 4 μg/mL concentration, the bacterial culture at an OD600 of approximately 0.001 and when necessary tetracycline at 25 μg/mL.”

[11] = system: Kpn.2909 (KPC-3, SHV+, TEM+, clinical); experiment: as above; assay type: cell-based; settings: Klebsiella pneumoniae, read-out: MIC of Ceftolozane, No BLI
Procedure: as §1, §2, §3
as §4, with “plates.” for “plates. The final volume of each well was 100 μL and contained a β-lactam at different concentrations, a BLIcompound at 4 μg/mL concentration, the bacterial culture at an OD600 of approximately 0.001 and when necessary tetracycline at 25 μg/mL.”

[12] = system: Eco.2840 (KPC-4, isogenic); experiment: as above; assay type: cell-based; settings: Escherichia coli, read-out: MIC of Ceftolozane, No BLI
Procedure: as §1, §2, §3
as §4, with “plates.” for “plates. The final volume of each well was 100 μL and contained a β-lactam at different concentrations, a BLIcompound at 4 μg/mL concentration, the bacterial culture at an OD600 of approximately 0.001 and when necessary tetracycline at 25 μg/mL.”

[13] = system: Kpn.2917 (KPC-2, SHV+, clinical); experiment: as above; assay type: cell-based; settings: Klebsiella pneumoniae, read-out: MIC of Ceftolozane, No BLI
Procedure: as §1, §2, §3
as §4, with “plates.” for “plates. The final volume of each well was 100 μL and contained a β-lactam at different concentrations, a BLIcompound at 4 μg/mL concentration, the bacterial culture at an OD600 of approximately 0.001 and when necessary tetracycline at 25 μg/mL.”

[14] = system: Kpn.2478 (KPC-3, TEM+, clinical); experiment: as above; assay type: cell-based; settings: Klebsiella pneumoniae, read-out: MIC of Ceftolozane, No BLI
Procedure: as §1, §2, §3
as §4, with “plates.” for “plates. The final volume of each well was 100 μL and contained a β-lactam at different concentrations, a BLIcompound at 4 μg/mL concentration, the bacterial culture at an OD600 of approximately 0.001 and when necessary tetracycline at 25 μg/mL.”

[15] = system: Kpn.2783 (CTX-M-15, SHV+, TEM+, clinical); experiment: as above; assay type: cell-based; settings: Klebsiella pneumoniae, read-out: MIC of Ceftolozane, No BLI
Procedure: as §1, §2, §3
as §4, with “plates.” for “plates. The final volume of each well was 100 μL and contained a β-lactam at different concentrations, a BLIcompound at 4 μg/mL concentration, the bacterial culture at an OD600 of approximately 0.001 and when necessary tetracycline at 25 μg/mL.”

[16] = system: Eco.2806 (KPC-2, isogenic); experiment: as above; assay type: cell-based; settings: Escherichia coli, read-out: MIC of Ceftolozane, No BLI
Procedure: as §1, §2, §3
as §4, with “plates.” for “plates. The final volume of each well was 100 μL and contained a β-lactam at different concentrations, a BLIcompound at 4 μg/mL concentration, the bacterial culture at an OD600 of approximately 0.001 and when necessary tetracycline at 25 μg/mL.”

Eco.2711 (KPC, clinical) = experiment: as above; assay type: cell-based; settings: Escherichia coli, read-out: MIC of Ceftolozane, No BLI
Procedure: as §1, §2, §3
as §4, with “plates.” for “plates. The final volume of each well was 100 μL and contained a β-lactam at different concentrations, a BLIcompound at 4 μg/mL concentration, the bacterial culture at an OD600 of approximately 0.001 and when necessary tetracycline at 25 μg/mL.”

[17] = system: Kpn.2914 (KPC-2, SHV+, clinical); experiment: as above; assay type: cell-based; settings: Klebsiella pneumoniae, read-out: MIC of Ceftolozane, No BLI
Procedure: as §1, §2, §3
as §4, with “plates.” for “plates. The final volume of each well was 100 μL and contained a β-lactam at different concentrations, a BLIcompound at 4 μg/mL concentration, the bacterial culture at an OD600 of approximately 0.001 and when necessary tetracycline at 25 μg/mL.”

Cfr.568 (AmpC, clinical) = experiment: as above; assay type: cell-based, Citrobacter spp; settings: Citrobacter, read-out: MIC of Ceftolozane, No BLI
Procedure: as §1, §2
(§6) On the day of testing, primary cultures were started by scraping off 5-10 colonies from the TSAB plates containing clinical strains or the tetracycline supplemented LB plates containing engineered strains. […]
as §5, with “MIC values were defined as the lowest concentration producing no visible turbidity.” left out

[18] = system: Eco.2902 (Aba-ADC-33, isogenic); experiment: as above; assay type: cell-based; settings: Escherichia coli, read-out: MIC of Ceftolozane, No BLI
Procedure: as §1, §2, §6
as §5, with “MIC values were defined as the lowest concentration producing no visible turbidity.” left out

[19] = system: Eco.2491 (CMY-2, clinical); experiment: as above; assay type: cell-based, Escherichia coli; settings: Escherichia coli, read-out: MIC of Ceftolozane, No BLI
Procedure: as §1, §2, §3, §4, §5

[20] = system: Eco.2845 (OXA-15, isogenic); experiment: as above; assay type: cell-based, Escherichia coli; settings: Escherichia coli, read-out: MIC of Ceftolozane, No BLI
Procedure: as §1, §2, §3, §4, §5

[21] = system: Eco.2843 (DHA-1, isogenic); experiment: as above; assay type: cell-based, Escherichia coli; settings: Escherichia coli, read-out: MIC of Ceftolozane, No BLI
Procedure: as §1, §2, §3, §4, §5

[22] = system: Panel of Isogenic and Clinical Strains Expressing β-Lactamases; experiment: Standard BLI Potentiation MIC Assay in Combination with Ceftolozane, whole panel; assay type: cell-based; settings: panel of 24 strains; no BLI
Procedure: as §1, §2, §3, §4
as §5, with “MIC values were defined as the lowest concentration producing no visible turbidity.” left out

Ecl.569 (AmpC, clinical) = experiment: Standard BLI Potentiation MIC Assay in Combination with Ceftolozane; assay type: cell-based, Enterobacter spp; settings: Enterobacter, read-out: MIC of Ceftolozane, No BLI
Procedure: as §1, §2, §6
as §5, with “MIC values were defined as the lowest concentration producing no visible turbidity.” left out

Cn1c(N)c(NC(=O)NCCN)c[n+]1CC1=C(C(=O)O)N2C(=O)[C@@H](NC(=O)/C(=N\OC(C)(C)C(=O)[O-])c3nsc(N)n3)[C@H]2SC1 [Ceftolozane]
MIC [1]: 4 to 8 mg/L | MIC [2]: 1 to 2 mg/L | MIC [3]: 4 to 8 mg/L | MIC [4]: 16 to 32 mg/L | MIC [5]: > 64 mg/L | MIC [6]: 16 to 32 mg/L | MIC [7]: 4 to 8 mg/L | MIC [8]: > 64 mg/L | MIC [9]: > 64 mg/L | MIC [10]: > 64 mg/L | MIC [11]: > 64 mg/L | MIC [12]: > 64 mg/L | MIC [13]: 16 to 32 mg/L | MIC [14]: > 64 mg/L | MIC [15]: > 64 mg/L | MIC [16]: > 64 mg/L | MIC (Eco.2711 (KPC, clinical)): 16 to 32 mg/L | MIC [17]: 16 to 32 mg/L | MIC (Cfr.568 (AmpC, clinical)): > 64 mg/L | MIC [18]: > 64 mg/L | MIC [19]: 16 to 32 mg/L | MIC [20]: > 64 mg/L | MIC [21]: > 64 mg/L | MIC50 [22]: > 64 mg/L | MIC90 [22]: > 64 mg/L | MIC (Ecl.569 (AmpC, clinical)): > 64 mg/L
